Reference: patent US20230085307A1, “PYRIDAZINONE COMPOUND AND HERBICIDE” (NISSAN CHEMICAL CORPORATION, priority 2019, published 2023)

Columns and labels:
barnyard grass [1] = test: Test Example 3: herbicidal effect by foliage application, Wagner pot (Table 18, symbol H); type: in vivo, barnyard grass (Echinochloa crus-galli)
Outline: (§1)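 Plants were sown in alluvial soil held under 0.1–0.5 cm standing water and grown 14 days in a greenhouse at 25–30 °C. An emulsifiable formulation, water-diluted to the set dose, was then sprayed onto the foliage, and effects were scored three weeks later using previously defined criteria.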

Chinese sprangletop = test: Test Example 3: herbicidal effect by foliage application, Wagner pot (Table 18, symbol D); type: in vivo, chinese sprangletop (Leptochloa chinensis)
Outline: as §1

rice flat sedge = test: Test Example 3: herbicidal effect by foliage application, Wagner pot (Table 18, symbol E); type: in vivo, rice flat sedge (Cyperus iria)
Outline: as §1

southern crabgrass [2] = test: Test Example 4: herbicidal effect by soil treatment (Table 19, symbol F); type: in vivo, southern crabgrass (Digitaria ciliaris); details: amount of applied herbicide 320 g/ha
Outline: (§2)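 Scoring uses the grading scale of an earlier test, three weeks post-application. Treatment consists of spraying a diluted emulsion formulation across the surface of sterilized diluvial soil in which seeds are buried near 1.5 cm deep; boxes are kept in a greenhouse between 25° C. and 30° C.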

green foxtail [3] = test: Test Example 4: herbicidal effect by soil treatment (Table 19, symbol G); type: in vivo, green foxtail (Setaria viridis); details: amount of applied herbicide 320 g/ha
Outline: as §2

barnyard grass [4] = test: Test Example 4: herbicidal effect by soil treatment (Table 19, symbol H); type: in vivo, barnyard grass (Echinochloa crus-galli); details: amount of applied herbicide 320 g/ha
Outline: as §2

wild oat [5] = test: Test Example 4: herbicidal effect by soil treatment (Table 19, symbol I); type: in vivo, wild oat (Avena fatua); details: amount of applied herbicide 320 g/ha
Outline: as §2

blackgrass [6] = test: Test Example 4: herbicidal effect by soil treatment (Table 19, symbol J); type: in vivo, blackgrass (Alopecurus myosuroides); details: amount of applied herbicide 320 g/ha
Outline: as §2

Italian ryegrass [7] = test: Test Example 4: herbicidal effect by soil treatment (Table 19, symbol K); type: in vivo, Italian ryegrass (Lolium multiflorum); details: amount of applied herbicide 320 g/ha
Outline: as §2

windgrass [8] = test: Test Example 4: herbicidal effect by soil treatment (Table 19, symbol L); type: in vivo, windgrass (Apera spica-venti); details: amount of applied herbicide 320 g/ha
Outline: as §2

velvetleaf [9] = test: Test Example 4: herbicidal effect by soil treatment (Table 19, symbol M); type: in vivo, velvetleaf (Abutilon theophrasti); details: amount of applied herbicide 320 g/ha
Outline: as §2

redroot pigweed = test: Test Example 4: herbicidal effect by soil treatment (Table 19, symbol N); type: in vivo, redroot pigweed (Amaranthus retroflexus); details: amount of applied herbicide 320 g/ha
Outline: as §2

lambsquarters [10] = test: Test Example 4: herbicidal effect by soil treatment (Table 19, symbol O); type: in vivo, lambsquarters (Chenopodium album); details: amount of applied herbicide 320 g/ha
Outline: as §2

chickweed = test: Test Example 4: herbicidal effect by soil treatment (Table 19, symbol P); type: in vivo, common chickweed (Stellaria media); details: amount of applied herbicide 320 g/ha
Outline: as §2

false cleavers [11] = test: Test Example 4: herbicidal effect by soil treatment (Table 19, symbol Q); type: in vivo, false cleavers (Galium spurium); details: amount of applied herbicide 320 g/ha
Outline: as §2

persian speedwell [12] = test: Test Example 4: herbicidal effect by soil treatment (Table 19, symbol R); type: in vivo, Persian speedwell (Veronica persica); details: amount of applied herbicide 320 g/ha
Outline: as §2

southern crabgrass [13] = test: Test Example 5: herbicidal effect by foliage application, plastic box (Table 20, symbol F); type: in vivo, southern crabgrass (Digitaria ciliaris); details: foliage application, 320 g/ha, three weeks after application
Outline: (§3)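 Post-emergence foliar test in sterilized diluvial soil. Compound applied as water-diluted emulsion at a predetermined rate to 14-day-old plants; evaluation at three weeks.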

green foxtail [14] = test: Test Example 5: herbicidal effect by foliage application, plastic box (Table 20, symbol G); type: in vivo, green foxtail (Setaria viridis); details: foliage application, 320 g/ha, three weeks after application
Outline: as §3

barnyard grass [15] = test: Test Example 5: herbicidal effect by foliage application, plastic box (Table 20, symbol H); type: in vivo, barnyard grass (Echinochloa crus-galli); details: foliage application, 320 g/ha, three weeks after application
Outline: as §3

wild oat [16] = test: Test Example 5: herbicidal effect by foliage application, plastic box (Table 20, symbol I); type: in vivo, wild oat (Avena fatua); details: foliage application, 320 g/ha, three weeks after application
Outline: as §3

blackgrass [17] = test: Test Example 5: herbicidal effect by foliage application, plastic box (Table 20, symbol J); type: in vivo, blackgrass (Alopecurus myosuroides); details: foliage application, 320 g/ha, three weeks after application
Outline: as §3

Italian ryegrass [18] = test: Test Example 5: herbicidal effect by foliage application, plastic box (Table 20, symbol K); type: in vivo, Italian ryegrass (Lolium multiflorum); details: foliage application, 320 g/ha, three weeks after application
Outline: as §3

windgrass [19] = test: Test Example 5: herbicidal effect by foliage application, plastic box (Table 20, symbol L); type: in vivo, windgrass (Apera spica-venti); details: foliage application, 320 g/ha, three weeks after application
Outline: as §3

velvetleaf [20] = test: Test Example 5: herbicidal effect by foliage application, plastic box (Table 20, symbol M); type: in vivo, velvetleaf (Abutilon theophrasti); details: foliage application, 320 g/ha, three weeks after application
Outline: as §3

lambsquarters [21] = test: Test Example 5: herbicidal effect by foliage application, plastic box (Table 20, symbol O); type: in vivo, lambsquarters (Chenopodium album); details: foliage application, 320 g/ha, three weeks after application
Outline: as §3

false cleavers [22] = test: Test Example 5: herbicidal effect by foliage application, plastic box (Table 20, symbol Q); type: in vivo, false cleavers (Galium spurium); details: foliage application, 320 g/ha, three weeks after application
Outline: as §3

persian speedwell [23] = test: Test Example 5: herbicidal effect by foliage application, plastic box (Table 20, symbol R); type: in vivo, Persian speedwell (Veronica persica); details: foliage application, 320 g/ha, three weeks after application
Outline: as §3

[24] = amount of applied herbicide 320 g/ha

Row | Compound | F: southern crabgrass, herbicidal effect grade (southern crabgrass [2]) | G: green foxtail, herbicidal effect grade (green foxtail [3]) | H: barnyard grass, herbicidal effect grade (barnyard grass [4]) | I: wild oat, herbicidal effect grade (wild oat [5]) | J: blackgrass, herbicidal effect grade (blackgrass [6]) | K: Italian ryegrass, herbicidal effect grade (Italian ryegrass [7]) | L: windgrass, herbicidal effect grade (windgrass [8]) | M: velvetleaf, herbicidal effect grade (velvetleaf [9]) | N: redroot pigweed, herbicidal effect grade (redroot pigweed) | O: lambsquarters, herbicidal effect grade (lambsquarters [10]) | P: chickweed, herbicidal effect grade (chickweed) | Q: false cleavers, herbicidal effect grade (false cleavers [11]) | R: persian speedwell, herbicidal effect grade (persian speedwell [12]) | herbicidal effect on southern crabgrass (F) (southern crabgrass [13]) | herbicidal effect on green foxtail (G) (green foxtail [14]) | herbicidal effect on barnyard grass (H) (barnyard grass [15]) | herbicidal effect on wild oat (I) (wild oat [16]) | herbicidal effect on blackgrass (J) (blackgrass [17]) | herbicidal effect on Italian ryegrass (K) (Italian ryegrass [18]) | herbicidal effect on windgrass (L) (windgrass [19]) | further results
1 | COc1cc2sc(-c3ccccc3OC)c(-c3c(O)c(C)nn(C)c3=O)c2cc1OC [5-059] | 0 (Herbicidal rate of 5% or less (almost no effect)) | 0 (Herbicidal rate of 5% or less (almost no effect)) | 0 (Herbicidal rate of 5% or less (almost no effect)) | 0 (Herbicidal rate of 5% or less (almost no effect)) | 3 (Herbicidal rate of 40% or more and less than 70%) | 4 (Herbicidal rate of 70% or more and less than 90%) | 3 (Herbicidal rate of 40% or more and less than 70%) | 0 (Herbicidal rate of 5% or less (almost no effect)) | 0 (Herbicidal rate of 5% or less (almost no effect)) | 0 (Herbicidal rate of 5% or less (almost no effect)) | 0 (Herbicidal rate of 5% or less (almost no effect)) | 0 (Herbicidal rate of 5% or less (almost no effect)) | 0 (Herbicidal rate of 5% or less (almost no effect)) | 4 (Herbicidal rate of 70% or more and less than 90%) | 4 (Herbicidal rate of 70% or more and less than 90%) | 3 (Herbicidal rate of 40% or more and less than 70%) | 4 (Herbicidal rate of 70% or more and less than 90%) | 5 (Herbicidal rate of 90% or more (almost completely withered)) | 4 (Herbicidal rate of 70% or more and less than 90%) | 4 (Herbicidal rate of 70% or more and less than 90%) | herbicidal effect on barnyard grass (H) (barnyard grass [1]; 320 g/ha): 5 (Herbicidal rate of 90% or more (almost completely withered)); herbicidal effect on Chinese sprangletop (D) (Chinese sprangletop; 320 g/ha): 3 (Herbicidal rate of 40% or more and less than 70%); herbicidal effect on rice flat sedge (E) (rice flat sedge; 320 g/ha): 4 (Herbicidal rate of 70% or more and less than 90%); herbicidal effect on velvetleaf (M) (velvetleaf [20]): 3 (Herbicidal rate of 40% or more and less than 70%); herbicidal effect on lambsquarters (O) (lambsquarters [21]): 4 (Herbicidal rate of 70% or more and less than 90%); herbicidal effect on false cleavers (Q) (false cleavers [22]): 0 (Herbicidal rate of 5% or less (almost no effect)); herbicidal effect on persian speedwell (R) (persian speedwell [23]): 4 (Herbicidal rate of 70% or more and less than 90%)
2 | COc1cc(F)ccc1-c1oc2ccccc2c1-c1c(O)c(C)nn(C)c1=O [8-001] | 0 (Herbicidal rate of 5% or less (almost no effect)) | 0 (Herbicidal rate of 5% or less (almost no effect)) | 0 (Herbicidal rate of 5% or less (almost no effect)) | 3 (Herbicidal rate of 40% or more and less than 70%) | 0 (Herbicidal rate of 5% or less (almost no effect)) | 0 (Herbicidal rate of 5% or less (almost no effect)) | 0 (Herbicidal rate of 5% or less (almost no effect)) | 0 (Herbicidal rate of 5% or less (almost no effect)) | 0 (Herbicidal rate of 5% or less (almost no effect)) | 0 (Herbicidal rate of 5% or less (almost no effect)) | 0 (Herbicidal rate of 5% or less (almost no effect)) | 0 (Herbicidal rate of 5% or less (almost no effect)) | 0 (Herbicidal rate of 5% or less (almost no effect)) | 0 (Herbicidal rate of 5% or less (almost no effect)) | 3 (Herbicidal rate of 40% or more and less than 70%) | 3 (Herbicidal rate of 40% or more and less than 70%) | 3 (Herbicidal rate of 40% or more and less than 70%) | 0 (Herbicidal rate of 5% or less (almost no effect)) | 3 (Herbicidal rate of 40% or more and less than 70%) | 5 (Herbicidal rate of 90% or more (almost completely withered)) | Herbicidal effect on H (barnyard grass), foliage application (barnyard grass [1]; [24]): 4 (Herbicidal rate of 70% or more and less than 90%); Herbicidal effect on D (Chinese sprangletop), foliage application (Chinese sprangletop; [24]): 3 (Herbicidal rate of 40% or more and less than 70%); Herbicidal effect on E (rice flat sedge), foliage application (rice flat sedge; [24]): 1 (Herbicidal rate of 5% or more and less than 20%); herbicidal effect on velvetleaf (M) (velvetleaf [20]): 3 (Herbicidal rate of 40% or more and less than 70%); herbicidal effect on lambsquarters (O) (lambsquarters [21]): 3 (Herbicidal rate of 40% or more and less than 70%); herbicidal effect on false cleavers (Q) (false cleavers [22]): 4 (Herbicidal rate of 70% or more and less than 90%); herbicidal effect on persian speedwell (R) (persian speedwell [23]): 4 (Herbicidal rate of 70% or more and less than 90%)
